Measurements published in patent publication US8163921B2, “Hepatitis C virus inhibitors” (Bristol-Myers Squibb Company, priority 2008, dated 2012).
Where two headings read alike, the source gives them in different places.

Tests used:
[1] = test system: HCV replicon in HUH-7 cells; test: HCV replicon FRET assay; format: cell-based, HCV strain 1b; settings: Hepatitis C virus
Excerpt: An HCV replicon whole cell system was established as described by Lohmann V, Korner F, Koch J, Herian U, Theilmann L, Bartenschlager R., Science 285(5424):110-3 (1999). This system enabled us to evaluate the effects of our HCV Protease compounds on HCV RNA replication. Briefly, using the HCV strain 1b sequence described in the Lohmann paper (Assession number:AJ238799), an HCV cDNA was synthesized by Operon Technologies, Inc. (Alameda, Calif.), and the full-length replicon was then assembled in plasmid pGem9zf(+) (Promega, Madison, Wis.) using standard molecular biology techniques. The replicon consists of (i) the HCV 5′ UTR fused to the first 12 amino acids of the capsid protein, (ii) the neomycin phosphotransferase gene (neo), (iii) the IRES from encephalomyocarditis virus (EMCV), and (iv) HCV NS3 to NS5B genes and the HCV 3′ UTR. Plasmid DNAs were linearized with ScaI and RNA transcripts were synthesized in vitro using the T7 MegaScript transcription kit (Ambion, Austin, Tex.) according to manufacturer's directions. In vitro transcripts of the eDNA were transfected into the human hepatoma cell line, HUH-7. […] Resulting cell lines were characterized for positive and negative strand RNA production and protein production over time.
The HCV replicon FRET assay was developed to monitor the inhibitory effects of compounds described in the disclosure on HCV viral replication. HUH-7 cells, constitutively expressing the HCV replicon, were grown in Dulbecco's Modified Eagle Media (DMEM) (Gibco-BRL) containing 10% Fetal calf serum (FCS) (Sigma) and 1 mg/ml G418 (Gibco-BRL). Cells were seeded the night before (1.5×10^4 cells/well) in 96-well tissue-culture sterile plates. Compound and no compound controls were prepared in DMEM containing 4% FCS, 1:100 Penicillin/Streptomysin (Gibco-BRL), 1:100 L-glutamine and 5% DMSO in the dilution plate (0.5% DMSO final concentration in the assay). Compound/DMSO mixes were added to the cells and incubated for 4 days at 37° C. After 4 days, cells were first assessed for cytotoxicity using alamar Blue (Trek Diagnotstic Systems) for a CC50 reading. The toxicity of compound (CC50) was determined by adding 1/10th volume of alamar Blue to the media incubating the cells. After 4 h, the fluorescence signal from each well was read, with an excitation wavelength at 530 nm and an emission wavelength of 580 nm, using the Cytofluor Series 4000 (Perspective Biosystems). Plates were then rinsed thoroughly with Phosphate-Buffered Saline (PBS) (3 times 150 μl).

[2] = target: T1, HCV NS3/4A protease complex, BMS strain (UniProt P27958, C1454S/C1711G, species not given); test: FRET peptide assay to monitor HCV NS3/4A proteolytic activity (BMS strain); format: biochemical, HCV genotype 1a; settings: read-out: IC50 Range, HCV NS3/4A enzyme assay
T1 construct: other: HCV NS3/4A enzyme assay; class symbols; numeric values; fused on or other part: three-lysine solubilising tail at the C-terminus of NS4A; purified on Ni-NTA from the pET21b vector (His tag implied)
Excerpt: HCV NS3 protease complexes, derived from the BMS strain, H77 strain or J4L6S strain, were generated, as described below. These purified recombinant proteins were generated for use in a homogeneous assay (see below) to provide an indication of how effective compounds of the present disclosure would be in inhibiting HCV NS3 proteolytic activity.
Serum from an HCV-infected patient was obtained from Dr. T. Wright, San Francisco Hospital. An engineered full-length cDNA (compliment deoxyribonucleic acid) template of the HCV genome (BMS strain) was constructed from DNA fragments obtained by reverse transcription-PCR (RT-PCR) of serum RNA (ribonucleic acid) and using primers selected on the basis of homology between other genotype 1a strains. From the determination of the entire genome sequence, a genotype 1a was assigned to the HCV isolate according to the classification of Simmonds et al. (See P Simmonds, K A Rose, S Graham, S W Chan, F McOmish, B C Dow, E A Follett, P L Yap and H Marsden, J. Clin. Microbiol., 31(6), 1493-1503 (1993)). […] The infectious clones, H77 (1a genotype) and J4L6S (1b genotype) were obtained from R. Purcell (NIH) and the sequences are published in Genbank (AAB67036, see Yanagi, M., Purcell, R. H., Emerson, S. U. and Buldi, J. Proc. Natl. Acad. Sci. U.S.A. 94(16),8738-8743 (1997); AF054247, see Yanagi, M., St Claire, M., Shapiro, M., Emerson, S. U., Purcell, R. H. and Bukh, J, Virology 244 (1), 161-172. (1998)).
NS3/4A protease complex-containing fractions were pooled and loaded on a desalting column Superdex-S200 pre-equilibrated with buffer D (25 mM HEPES, pH 7.5, 20% glycerol, 300 mM NaCl, 0.2% TritonX-100, 10 mM βMB). Sample was loaded at a flow rate of 1 mL/min. NS3/4A protease complex-containing fractions were pooled and concentrated to approximately 0.5 mg/ml. The purity of the NS3/4A protease complexes, derived from the BMS, H77 and J4L6S strains, were judged to be greater than 90% by SDS-PAGE and mass spectrometry analyses. The enzyme was stored at −80° C., thawed on ice and diluted prior to use in assay buffer.
The purpose of this in vitro assay was to measure the inhibition of HCV NS3 protease complexes, derived from the BMS strain, H77 strain or J4L6S strain, as described above, by compounds of the present disclosure. This assay provides an indication of how effective compounds of the present disclosure would be in inhibiting HCV NS3 proteolytic activity.
In order to monitor HCV NS3/4A protease activity, an NS3/4A peptide substrate was used. The substrate was RET S1 (Resonance Energy Transfer Depsipeptide Substrate; AnaSpec, Inc. cat #22991)(FRET peptide), described by Taliani et al. in Anal. Biochem. 240(2):60-67 (1996). The sequence of this peptide is loosely based on the NS4A/NS4B natural cleavage site for the HCV NS3 protease except there is an ester linkage rather than an amide bond at the cleavage site. The peptide also contains a fluorescence donor, EDANS, near one end of the peptide and an acceptor, DABCYL, near the other end. The fluorescence of the peptide is quenched by […] resonance energy transfer (RET) between the donor and the acceptor, but as the NS3 protease cleaves the peptide the products are released from RET quenching and the fluorescence of the donor becomes apparent.
The peptide substrate was incubated with one of the three recombinant NS3/4A protease complexes, in the absence or presence of a compound of the present disclosure. The inhibitory effects of a compound were determined by monitoring the formation of fluorescent reaction product in real time using a Cytofluor Series 4000.
Assay buffer: 50 mM HEPES, pH 7.5; 0.15 M NaCl; 0.1% Triton; 15% Glycerol; 10 mM βME. Substrate: 2 μM final concentration (from a 2 mM stock solution in DMSO stored at −20° C.). HCV NS3/4A protease type 1a (1b), 2-3 nM final concentration (from a 5 μM stock solution in 25 mM HEPES, pH 7.5, 20% glycerol, 300 mM NaCl, 0.2% Triton-X100, 10 mM βME). […]

[3] = Huh-7, HCV replicon cell assay, numeric values, read-out: EC50 Range

| Structure (SMILES) | EC50 ([1]; Huh-7, read-out: EC50 Range) [nM] | IC50 ([2]; class symbols) [nM] | EC50 [1, 3] [nM] | IC50 ([2]; numeric values) [nM] |
| --- | --- | --- | --- | --- |
| C=C[C@@H]1C[C@]1(NC(=O)[C@@H]1C[C@@H](Oc2ncc(OC)c3ccc(Cl)cc23)CN1C(=O)[C@@H](Nc1nc(-c2ccc(C(F)(F)F)cc2)cs1)C(C)(C)C)C(=O)NS(=O)(=O)C1CC1 [Example 10, (2S,4R)-4-(7-chloro-4-methoxyisoquinolin-1-yloxy)-N-((1R,2S)-1-(cyclopropylsulfonylcarbamoyl)-2-vinylcyclopropyl)-1-((S)-3,3-dimethyl-2-(4-(4-(trifluoromethyl)phenyl)thiazol-2-ylamino)butanoyl)pyrrolidine-2-carboxamide] | 1 to 50 | 1 to 20 |  |  |
| C=C[C@@H]1C[C@]1(NC(=O)[C@@H]1C[C@@H](Oc2ncc(OC)c3ccc(Cl)cc23)CN1C(=O)[C@@H](Nc1nc(-c2ccc3ccccc3c2)cs1)C(C)(C)C)C(=O)NS(=O)(=O)C1CC1 [Example 11] | 1 to 50 | 1 to 20 |  |  |
| C=C[C@@H]1C[C@]1(NC(=O)[C@@H]1C[C@@H](Oc2ncc(OC)c3ccc(Cl)cc23)CN1C(=O)[C@@H](Nc1nc(-c2ccc(OC)cc2)c(CC)s1)C(C)(C)C)C(=O)NS(=O)(=O)C1CC1 [Example 12] | 1 to 50 | 1 to 20 |  |  |
| C=C[C@@H]1C[C@]1(NC(=O)[C@@H]1C[C@@H](Oc2ncc(OC)c3ccc(Cl)cc23)CN1C(=O)[C@@H](Nc1nc(-c2ccc(F)cc2F)cs1)C(C)(C)C)C(=O)NS(=O)(=O)C1CC1 [Example 13] | 1 to 50 | 1 to 20 |  |  |
| C=C[C@@H]1C[C@]1(NC(=O)[C@@H]1C[C@@H](Oc2ncc(OC)c3ccc(Cl)cc23)CN1C(=O)[C@@H](Nc1nc(-c2ccccn2)cs1)C(C)(C)C)C(=O)NS(=O)(=O)C1CC1 [Example 14] | 1 to 50 | 1 to 20 |  |  |
| C=C[C@@H]1C[C@]1(NC(=O)[C@@H]1C[C@@H](Oc2ncc(OC)c3ccc(Cl)cc23)CN1C(=O)[C@@H](Nc1nc(-c2cccnc2)cs1)C(C)(C)C)C(=O)NS(=O)(=O)C1CC1 [Example 15] | 1 to 50 | 1 to 20 |  |  |
| C=C[C@@H]1C[C@]1(NC(=O)[C@@H]1C[C@@H](Oc2ncc(OC)c3ccc(Cl)cc23)CN1C(=O)[C@@H](Nc1nc(-c2ccncc2)cs1)C(C)(C)C)C(=O)NS(=O)(=O)C1CC1 [Example 16] |  |  | 6.57 | 1 |
| C=C[C@@H]1C[C@]1(NC(=O)[C@@H]1C[C@@H](Oc2ncc(OC)c3ccc(Cl)cc23)CN1C(=O)[C@@H](Nc1nc(-c2ccc(OC(F)(F)F)cc2)cs1)C(C)(C)C)C(=O)NS(=O)(=O)C1CC1 [Example 17] |  |  | 8.95 | 11 |
| C=C[C@@H]1C[C@]1(NC(=O)[C@@H]1C[C@@H](Oc2ncc(OC)c3ccc(Cl)cc23)CN1C(=O)[C@@H](Nc1nc(-c2ccc(Br)cc2)c(Br)s1)C(C)(C)C)C(=O)NS(=O)(=O)C1CC1 [Example 19] | 1 to 50 | 1 to 20 |  |  |
| C=C[C@@H]1C[C@]1(NC(=O)[C@@H]1C[C@@H](Oc2ncc(OC)c3ccc(Cl)cc23)CN1C(=O)[C@@H](Nc1nc(-c2ccccc2)cs1)C(C)(C)C)C(=O)NS(=O)(=O)C1CC1 [Example 20] |  |  | 3.9 | 3 |
| C=C[C@@H]1C[C@]1(NC(=O)[C@@H]1C[C@@H](Oc2ncc(OC)c3ccc(Cl)cc23)CN1C(=O)[C@@H](Nc1nc(-c2ccc(C#N)cc2)cs1)C(C)(C)C)C(=O)NS(=O)(=O)C1CC1 [Example 21] | 1 to 50 | 1 to 20 |  |  |
| C=C[C@@H]1C[C@]1(NC(=O)[C@@H]1C[C@@H](Oc2ncc(OC)c3ccc(Cl)cc23)CN1C(=O)[C@@H](Nc1nc(-c2cc(C(F)(F)F)cc(C(F)(F)F)c2)cs1)C(C)(C)C)C(=O)NS(=O)(=O)C1CC1 [Example 22] | 1 to 50 | 1 to 20 |  |  |
| C=C[C@@H]1C[C@]1(NC(=O)[C@@H]1C[C@@H](Oc2ncc(OC)c3ccc(Cl)cc23)CN1C(=O)[C@@H](Nc1nc(-c2ccc(C)cc2)cs1)C(C)(C)C)C(=O)NS(=O)(=O)C1CC1 [Example 23] | 1 to 50 | 20 to 200 |  |  |
| C=C[C@@H]1C[C@]1(NC(=O)[C@@H]1C[C@@H](Oc2ncc(OC)c3ccc(Cl)cc23)CN1C(=O)[C@@H](Nc1nc(-c2ccc(-c3ccccc3)cc2)cs1)C(C)(C)C)C(=O)NS(=O)(=O)C1CC1 [Example 24] | 1 to 50 | 20 to 200 |  |  |
| C=C[C@@H]1C[C@]1(NC(=O)[C@@H]1C[C@@H](Oc2ncc(OC)c3ccc(Cl)cc23)CN1C(=O)[C@@H](Nc1nc(-c2cccc(C#N)c2)cs1)C(C)(C)C)C(=O)NS(=O)(=O)C1CC1 [Example 25] | 1 to 50 | 1 to 20 |  |  |
| C=C[C@@H]1C[C@]1(NC(=O)[C@@H]1C[C@@H](Oc2ncc(OC)c3ccc(Cl)cc23)CN1C(=O)[C@@H](Nc1nc(-c2cnccn2)cs1)C(C)(C)C)C(=O)NS(=O)(=O)C1CC1 [Example 26] | 1 to 50 | 1 to 20 |  |  |
| C=C[C@@H]1C[C@]1(NC(=O)[C@@H]1C[C@@H](Oc2ncc(OC)c3ccc(Cl)cc23)CN1C(=O)[C@@H](Nc1nc(-c2ccc(Cl)c(C)c2)cs1)C(C)(C)C)C(=O)NS(=O)(=O)C1CC1 [Example 27] |  |  | 5.26 | 2 |
| C=C[C@@H]1C[C@]1(NC(=O)[C@@H]1C[C@@H](Oc2ncc(OC)c3ccc(Cl)cc23)CN1C(=O)[C@@H](Nc1nc(-c2ccc(OC)cc2OC)cs1)C(C)(C)C)C(=O)NS(=O)(=O)C1CC1 [Example 28] | 1 to 50 | 1 to 20 |  |  |
